{"source": "patent US8192962B2", "about": "“Processes for detecting toxic substances” (Daikin Industries, Ltd., priority 2001, dated 2012)", "key": {"[1]": {"system": "Detoxification protein genes", "experiment": "DNA chip mRNA expression in yeast, detoxification protein genes (Table 8)", "type": "cell-based, Saccharomyces cerevisiae S288C", "outline": "(§1)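 S. cerevisiae S288C grown at 25° C. in YPD to log phase, then exposed 2 h to a toxicant at a growth-inhibiting, non-lethal concentration; untreated cells as control. Poly(A) mRNA reverse-transcribed with Cy3-dUTP or Cy5-dUTP, hybridized >12 h at 65° C. to whole-genome yeast DNA chip; value = fluorescence ratio treated/untreated.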"}, "DNA repair protein genes": {"system": "DNA repair protein genes", "experiment": "DNA chip mRNA expression in yeast, DNA repair protein genes (Table 3)", "type": "cell-based, Saccharomyces cerevisiae S288C", "settings": "incubated two hours, concentrations as in the 1st table", "outline": "as §1"}}, "data": [{"smiles": "[Cl][Hg][Cl]", "note": "[(3), HgCl2]", "values": [{"measurement": "The level of expressed mRNA in the presence of chemical substance/The level of expressed mRNA in the absence of chemical substance", "setting": "[1]; yeast gene YOR251C", "result": 1.3}, {"measurement": "The level of expressed mRNA in the presence of chemical substance/The level of expressed mRNA in the absence of chemical substance", "setting": "[1]; yeast gene YOR273C", "result": 1.7}, {"measurement": "The level of expressed mRNA in the presence of chemical substance/The level of expressed mRNA in the absence of chemical substance", "setting": "[1]; yeast gene YPL163C", "result": 1.4}, {"measurement": "The level of expressed mRNA in the presence of chemical substance/The level of expressed mRNA in the absence of chemical substance", "setting": "[1]; yeast gene YPR200C", "result": 0.8}, {"measurement": "The level of expressed mRNA in the presence of chemical substance/The level of expressed mRNA in the absence of chemical substance", "setting": "DNA repair protein genes; yeast gene YAL015C", "result": 1.7}, {"measurement": "The level of expressed mRNA in the presence of chemical substance/The level of expressed mRNA in the absence of chemical substance", "setting": "DNA repair protein genes; yeast gene YAR007C", "result": 0.8}, {"measurement": "The level of expressed mRNA in the presence of chemical substance/The level of expressed mRNA in the absence of chemical substance", "setting": "DNA repair protein genes; yeast gene YBL019W", "result": 0.7}, {"measurement": "The level of expressed mRNA in the presence of chemical substance/The level of expressed mRNA in the absence of chemical substance", "setting": "DNA repair protein genes; yeast gene YBR073W", "result": 0.9}, {"measurement": "The level of expressed mRNA in the presence of chemical substance/The level of expressed mRNA in the absence of chemical substance", "setting": "DNA repair protein genes; yeast gene YBR272C", "result": 1.3}, {"measurement": "The level of expressed mRNA in the presence of chemical substance/The level of expressed mRNA in the absence of chemical substance", "setting": "DNA repair protein genes; yeast gene YCR014C", "result": 0.8}, {"measurement": "The level of expressed mRNA in the presence of chemical substance/The level of expressed mRNA in the absence of chemical substance", "setting": "DNA repair protein genes; yeast gene YDL017W", "result": 1.2}, {"measurement": "The level of expressed mRNA in the presence of chemical substance/The level of expressed mRNA in the absence of chemical substance", "setting": "DNA repair protein genes; yeast gene YDL059C", "result": 1.4}, {"measurement": "The level of expressed mRNA in the presence of chemical substance/The level of expressed mRNA in the absence of chemical substance", "setting": "DNA repair protein genes; yeast gene YDL200C", "result": 1.2}, {"measurement": "The level of expressed mRNA in the presence of chemical substance/The level of expressed mRNA in the absence of chemical substance", "setting": "DNA repair protein genes; yeast gene YDR054C", "result": 0.7}, {"measurement": "The level of expressed mRNA in the presence of chemical substance/The level of expressed mRNA in the absence of chemical substance", "setting": "DNA repair protein genes; yeast gene YDR369C", "result": 2.4}, {"measurement": "The level of expressed mRNA in the presence of chemical substance/The level of expressed mRNA in the absence of chemical substance", "setting": "DNA repair protein genes; yeast gene YEL019C", "result": 0.3}, {"measurement": "The level of expressed mRNA in the presence of chemical substance/The level of expressed mRNA in the absence of chemical substance", "setting": "DNA repair protein genes; yeast gene YEL037C", "result": 0.9}, {"measurement": "The level of expressed mRNA in the presence of chemical substance/The level of expressed mRNA in the absence of chemical substance", "setting": "DNA repair protein genes; yeast gene YER162C", "result": 1.0}, {"measurement": "The level of expressed mRNA in the presence of chemical substance/The level of expressed mRNA in the absence of chemical substance", "setting": "DNA repair protein genes; yeast gene YFL014W", "result": 5.7}, {"measurement": "The level of expressed mRNA in the presence of chemical substance/The level of expressed mRNA in the absence of chemical substance", "setting": "DNA repair protein genes; yeast gene YGL058W", "result": 0.6}, {"measurement": "The level of expressed mRNA in the presence of chemical substance/The level of expressed mRNA in the absence of chemical substance", "setting": "DNA repair protein genes; yeast gene YGL091C", "result": 1.0}, {"measurement": "The level of expressed mRNA in the presence of chemical substance/The level of expressed mRNA in the absence of chemical substance", "setting": "DNA repair protein genes; yeast gene YGL127C", "result": 1.3}, {"measurement": "The level of expressed mRNA in the presence of chemical substance/The level of expressed mRNA in the absence of chemical substance", "setting": "DNA repair protein genes; yeast gene YGL163C", "result": 0.6}, {"measurement": "The level of expressed mRNA in the presence of chemical substance/The level of expressed mRNA in the absence of chemical substance", "setting": "DNA repair protein genes; yeast gene YGL249W", "result": 0.5}, {"measurement": "The level of expressed mRNA in the presence of chemical substance/The level of expressed mRNA in the absence of chemical substance", "setting": "DNA repair protein genes; yeast gene YGR180C", "result": 1.9}, {"measurement": "The level of expressed mRNA in the presence of chemical substance/The level of expressed mRNA in the absence of chemical substance", "setting": "DNA repair protein genes; yeast gene YGR231C", "result": 0.7}, {"measurement": "The level of expressed mRNA in the presence of chemical substance/The level of expressed mRNA in the absence of chemical substance", "setting": "DNA repair protein genes; yeast gene YGR258C", "result": 0.7}, {"measurement": "The level of expressed mRNA in the presence of chemical substance/The level of expressed mRNA in the absence of chemical substance", "setting": "DNA repair protein genes; yeast gene YHR164C", "result": 0.9}, {"measurement": "The level of expressed mRNA in the presence of chemical substance/The level of expressed mRNA in the absence of chemical substance", "setting": "DNA repair protein genes; yeast gene YIL036W", "result": 1.3}, {"measurement": "The level of expressed mRNA in the presence of chemical substance/The level of expressed mRNA in the absence of chemical substance", "setting": "DNA repair protein genes; yeast gene YIL072W", "result": 1.1}, {"measurement": "The level of expressed mRNA in the presence of chemical substance/The level of expressed mRNA in the absence of chemical substance", "setting": "DNA repair protein genes; yeast gene YIL143C", "result": 1.1}, {"measurement": "The level of expressed mRNA in the presence of chemical substance/The level of expressed mRNA in the absence of chemical substance", "setting": "DNA repair protein genes; yeast gene YIL153W", "result": 1.3}, {"measurement": "The level of expressed mRNA in the presence of chemical substance/The level of expressed mRNA in the absence of chemical substance", "setting": "DNA repair protein genes; yeast gene YIR002C", "result": 0.5}, {"measurement": "The level of expressed mRNA in the presence of chemical substance/The level of expressed mRNA in the absence of chemical substance", "setting": "DNA repair protein genes; yeast gene YJL026W", "result": 2.9}, {"measurement": "The level of expressed mRNA in the presence of chemical substance/The level of expressed mRNA in the absence of chemical substance", "setting": "DNA repair protein genes; yeast gene YJR046W", "result": 1.2}, {"measurement": "The level of expressed mRNA in the presence of chemical substance/The level of expressed mRNA in the absence of chemical substance", "setting": "DNA repair protein genes; yeast gene YJR052W", "result": 1.1}, {"measurement": "The level of expressed mRNA in the presence of chemical substance/The level of expressed mRNA in the absence of chemical substance", "setting": "DNA repair protein genes; yeast gene YKL145W", "result": 1.2}, {"measurement": "The level of expressed mRNA in the presence of chemical substance/The level of expressed mRNA in the absence of chemical substance", "setting": "DNA repair protein genes; yeast gene YLR103C", "result": 1.1}, {"measurement": "The level of expressed mRNA in the presence of chemical substance/The level of expressed mRNA in the absence of chemical substance", "setting": "DNA repair protein genes; yeast gene YLR233C", "result": 2.0}, {"measurement": "The level of expressed mRNA in the presence of chemical substance/The level of expressed mRNA in the absence of chemical substance", "setting": "DNA repair protein genes; yeast gene YLR288C", "result": 1.6}, {"measurement": "The level of expressed mRNA in the presence of chemical substance/The level of expressed mRNA in the absence of chemical substance", "setting": "DNA repair protein genes; yeast gene YML032C", "result": 1.1}, {"measurement": "The level of expressed mRNA in the presence of chemical substance/The level of expressed mRNA in the absence of chemical substance", "setting": "DNA repair protein genes; yeast gene YML058W", "result": 5.8}, {"measurement": "The level of expressed mRNA in the presence of chemical substance/The level of expressed mRNA in the absence of chemical substance", "setting": "DNA repair protein genes; yeast gene YMR035W", "result": 1.5}, {"measurement": "The level of expressed mRNA in the presence of chemical substance/The level of expressed mRNA in the absence of chemical substance", "setting": "DNA repair protein genes; yeast gene YMR072W", "result": 1.4}, {"measurement": "The level of expressed mRNA in the presence of chemical substance/The level of expressed mRNA in the absence of chemical substance", "setting": "DNA repair protein genes; yeast gene YMR096W", "result": 1.1}, {"measurement": "The level of expressed mRNA in the presence of chemical substance/The level of expressed mRNA in the absence of chemical substance", "setting": "DNA repair protein genes; yeast gene YMR284W", "result": 0.5}, {"measurement": "The level of expressed mRNA in the presence of chemical substance/The level of expressed mRNA in the absence of chemical substance", "setting": "DNA repair protein genes; yeast gene YNL213C", "result": 0.9}, {"measurement": "The level of expressed mRNA in the presence of chemical substance/The level of expressed mRNA in the absence of chemical substance", "setting": "DNA repair protein genes; yeast gene YNL250W", "result": 0.8}, {"measurement": "The level of expressed mRNA in the presence of chemical substance/The level of expressed mRNA in the absence of chemical substance", "setting": "DNA repair protein genes; yeast gene YNL261W", "result": 0.6}, {"measurement": "The level of expressed mRNA in the presence of chemical substance/The level of expressed mRNA in the absence of chemical substance", "setting": "DNA repair protein genes; yeast gene YNL312W", "result": 1.6}, {"measurement": "The level of expressed mRNA in the presence of chemical substance/The level of expressed mRNA in the absence of chemical substance", "setting": "DNA repair protein genes; yeast gene YOL043C", "result": 0.8}, {"measurement": "The level of expressed mRNA in the presence of chemical substance/The level of expressed mRNA in the absence of chemical substance", "setting": "DNA repair protein genes; yeast gene YOR005C", "result": 1.0}, {"measurement": "The level of expressed mRNA in the presence of chemical substance/The level of expressed mRNA in the absence of chemical substance", "setting": "DNA repair protein genes; yeast gene YOR386W", "result": 1.3}, {"measurement": "The level of expressed mRNA in the presence of chemical substance/The level of expressed mRNA in the absence of chemical substance", "setting": "DNA repair protein genes; yeast gene YPL022W", "result": 0.7}, {"measurement": "The level of expressed mRNA in the presence of chemical substance/The level of expressed mRNA in the absence of chemical substance", "setting": "DNA repair protein genes; yeast gene YPL164C", "result": 1.1}, {"measurement": "The level of expressed mRNA in the presence of chemical substance/The level of expressed mRNA in the absence of chemical substance", "setting": "DNA repair protein genes; yeast gene YPL194W", "result": 0.4}, {"measurement": "The level of expressed mRNA in the presence of chemical substance/The level of expressed mRNA in the absence of chemical substance", "setting": "DNA repair protein genes; yeast gene YPR025C", "result": 0.6}]}]}
